Test results as given in ChEMBL document CHEMBL1143695, “Synthesis and biological studies of novel 2-aminoalkylethers as potential antiarrhythmic agents for the conversion of atrial fibrillation” (J Med Chem, 2007).
Calls of active or inactive are those of the source. The rule behind the calls is not given here.

Tests used:
in vivo = conditions: CD1, mouse, iv
Description: Toxicity in intravenously dosed CD1 mouse

Rattus norvegicus [1] = assay: Antiarrhythmic activity in intravenously dosed Sprague-Dawley rat with ischemia-induced arrhythmia; format: functional, Heart
Rattus norvegicus [2] = assay: CNS toxicity in iv dosed Sprague-Dawley rat assessed as cumulative convulsion dose; format: organism-based; conditions: in vivo
[3] = target: T1, A-type voltage-gated potassium channel KCND2 (Rattus norvegicus, UniProt Q63881); assay: Inhibition of rat potassium channel Kv4.2 by patch-clamp method
T1 sequence (Q63881 whole entry): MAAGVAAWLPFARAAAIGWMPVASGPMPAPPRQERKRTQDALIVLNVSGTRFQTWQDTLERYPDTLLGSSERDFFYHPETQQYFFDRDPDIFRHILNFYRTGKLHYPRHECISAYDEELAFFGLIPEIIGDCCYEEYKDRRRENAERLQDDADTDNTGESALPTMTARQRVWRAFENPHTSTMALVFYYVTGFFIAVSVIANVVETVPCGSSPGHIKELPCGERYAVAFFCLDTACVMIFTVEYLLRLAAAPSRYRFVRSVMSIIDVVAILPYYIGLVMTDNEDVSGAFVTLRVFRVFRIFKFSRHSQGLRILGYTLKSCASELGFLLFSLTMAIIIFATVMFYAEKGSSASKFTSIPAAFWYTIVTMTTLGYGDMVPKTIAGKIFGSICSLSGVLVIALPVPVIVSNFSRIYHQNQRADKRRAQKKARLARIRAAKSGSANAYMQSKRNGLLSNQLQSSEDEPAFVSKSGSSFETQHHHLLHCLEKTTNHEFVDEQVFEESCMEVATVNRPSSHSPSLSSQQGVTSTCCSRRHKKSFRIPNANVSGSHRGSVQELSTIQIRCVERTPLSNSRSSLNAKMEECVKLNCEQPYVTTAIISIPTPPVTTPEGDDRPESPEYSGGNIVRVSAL

[4] = target: Potassium voltage-gated channel subfamily A member 5 (Homo sapiens, UniProt P22460); assay: Inhibition of human potassium channel Kv1.5 by patch-clamp method
Canis familiaris [5] = species: Canis familiaris; assay: Reduction of blood pressure in Mongrel dog vagal atrial fibrillation model; format: functional, organism-based; conditions: Canis lupus familiaris
Canis familiaris [6] = species: Canis familiaris; assay: Reduction of heart rate in Mongrel dog vagal atrial fibrillation model; format: functional, organism-based; conditions: Canis lupus familiaris

Potassium voltage-gated channel subfamily A member 5, sequence (P22460 whole entry): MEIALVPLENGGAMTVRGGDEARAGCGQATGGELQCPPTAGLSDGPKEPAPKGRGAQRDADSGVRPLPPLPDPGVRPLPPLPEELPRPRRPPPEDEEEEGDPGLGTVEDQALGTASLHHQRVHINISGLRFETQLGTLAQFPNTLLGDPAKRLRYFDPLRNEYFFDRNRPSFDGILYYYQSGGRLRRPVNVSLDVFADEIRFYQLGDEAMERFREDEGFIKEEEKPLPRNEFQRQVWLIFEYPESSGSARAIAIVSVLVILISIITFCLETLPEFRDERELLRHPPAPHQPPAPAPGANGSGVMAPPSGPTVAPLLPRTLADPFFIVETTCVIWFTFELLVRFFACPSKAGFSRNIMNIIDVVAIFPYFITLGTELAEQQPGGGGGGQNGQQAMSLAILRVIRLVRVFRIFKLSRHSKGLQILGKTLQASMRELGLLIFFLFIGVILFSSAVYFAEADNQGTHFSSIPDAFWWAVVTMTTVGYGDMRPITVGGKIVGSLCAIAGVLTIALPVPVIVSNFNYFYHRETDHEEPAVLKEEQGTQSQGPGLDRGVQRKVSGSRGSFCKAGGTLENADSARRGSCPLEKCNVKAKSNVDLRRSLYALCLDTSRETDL

SMILES	ED50 (Rattus norvegicus [1]) [µmol/kg/min]	Activity (Rattus norvegicus [2]) [µmol/kg]	also measured
COc1ccc(CCCO[C@@H]2CCCC[C@H]2N2CCOCC2)cc1OC	1.5	109	LD50 (in vivo): 112 µmol/kg
OC1CCN([C@@H]2CCCC[C@@H]2OCCc2cccc3ccccc23)C1 (mixture of isomers)	0.4	70	–
O=C1CCN([C@@H]2CCCC[C@H]2OCCc2csc3ccccc23)C1	–	203	–
c1ccc2cc(OCCO[C@@H]3CCCC[C@H]3N3CCOCC3)ccc2c1	–	62	–
Clc1cccc(Cl)c1CCO[C@@H]1CCCC[C@H]1N1CCOCC1	1.2	86	LD50 (in vivo): 76 µmol/kg
O=C1CCN([C@@H]2CCCC[C@@H]2OCCc2cccc3ccccc23)C1	1.6	145	–
COc1ccc(CCO[C@@H]2CCCC[C@H]2N2CCCC2)cc1OC	1.3	118	–
OC1CCN([C@@H]2CCCC[C@H]2OCCc2ccccc2Br)C1 (mixture of isomers)	0.4	67	–
O=C1CCN([C@@H]2CCCC[C@H]2OCCc2cccc3ccccc23)CC1	0.9	75	–
COc1ccc(CCCCO[C@@H]2CCCC[C@H]2N2CCOCC2)cc1OC	1.5	67	–
CC(=O)N1CCN([C@@H]2CCCC[C@H]2OCCc2ccc3ccccc3c2)CC1	–	67	–
COc1ccc(CCO[C@@H]2CCCC[C@H]2N2CCOCC2)cc1OC	1.5	113	LD50 (in vivo): 97 µmol/kg
O=C1CCN([C@@H]2CCCC[C@H]2OCCc2ccccc2C(F)(F)F)C1	2.7	225	–
Brc1ccc(OCCO[C@@H]2CCCC[C@H]2N2CCOCC2)cc1	2.5	83	–
c1cc(CCO[C@@H]2CCCC[C@H]2N2CCOCC2)c2ccsc2c1	0.7	54	LD50 (in vivo): 38 µmol/kg
FC(F)(F)c1ccccc1CCO[C@H]1CCCC[C@H]1N1CCOCC1 (single isomer, unassigned)	1.4	102	–
OC1CCN([C@@H]2CCCC[C@H]2OCCc2cccc3ccccc23)C1 (mixture of isomers)	0.8	67	–
Brc1ccc(CCO[C@H]2CCCC[C@H]2N2CCOCC2)cc1 (single isomer, unassigned)	2	6.7	–
Clc1cccc(Cl)c1CCO[C@@H]1CCCC[C@H]1N1CCSC1	6.5	331	–
c1ccc2c(CCO[C@@H]3CCCC[C@H]3N3CCCC3)cccc2c1	0.9	–	–
O=C1CCN([C@@H]2CCCC[C@H]2OCC(c2ccccc2)c2ccccc2)C1	2.5	155	–
c1ccc2c(CCO[C@@H]3CCCC[C@H]3N3CCOCC3)csc2c1	0.8	65	LD50 (in vivo): 52 µmol/kg
Brc1ccccc1CCO[C@@H]1CCCC[C@H]1N1CCOCC1	1	125	LD50 (in vivo): 86 µmol/kg
FC(F)(F)c1ccccc1CCO[C@@H]1CCCC[C@H]1N1CCOCC1	0.8	134	–

SMILES	ED50 (Rattus norvegicus [1]) [µmol/kg/min]	Activity (Rattus norvegicus [2]) [µmol/kg]	also measured
C=C[C@H]1CN2CC[C@H]1C[C@@H]2[C@@H](O)c1ccnc2ccc(OC)cc12 [QUINIDINE]	4	317	–
c1cc(CCO[C@@H]2CCCC[C@H]2N2CCOCC2)c2ccoc2c1	1.4	–	LD50 (in vivo): 56 µmol/kg
Brc1ccc(CCO[C@@H]2CCCC[C@H]2N2CCOCC2)cc1	2.5	91	LD50 (in vivo): 103 µmol/kg
Brc1ccc(CCO[C@@H]2CCCC[C@H]2N2CCOCC2)c(Br)c1	–	123	–
COc1ccc(CCO[C@@H]2CCCC[C@H]2N2CCNCC2)cc1OC	1.6	392	–
O=C1CCN([C@@H]2CCCC[C@H]2OCCc2ccc(Br)cc2)C1	8	161	–
O=C1CCN([C@@H]2CCCC[C@H]2OCCc2ccc(Br)cc2Br)C1	–	246	–
O=C1CCN([C@@H]2CCCC[C@H]2OCCCC2CCCCC2)C1	–	300	–
COc1ccc(CCCO[C@@H]2CCCC[C@H]2N2CCOCC2)c(OC)c1	1.2	94	LD50 (in vivo): 130 µmol/kg
c1ccc2cc(CCO[C@@H]3CCC[C@H]3N3CCOCC3)ccc2c1	1.5	187	–
O=C(NCC1CCCCN1)c1cc(OCC(F)(F)F)ccc1OCC(F)(F)F (centres undefined) [FLECAINIDE]	–	113	LD50 (in vivo): 20 µmol/kg; IC50 [3]: 10.1 µM; IC50 [4]: 51 µM
CCN(CC)CC(=O)Nc1c(C)cccc1C [LIDOCAINE]	4.5	190	IC50 [3]: 1210 µM; IC50 [4]: 2190 µM
c1ccc2cc(CCO[C@@H]3CCCC[C@H]3N3CCOCC3)ccc2c1	0.8	85	LD50 (in vivo): 130 µmol/kg
COc1ccc(CCO[C@@H]2CCCC[C@H]2N2CCC3(C2)OCCO3)cc1OC	1.6	91	–
Brc1ccc(CCCO[C@@H]2CCCC[C@H]2N2CCOCC2)cc1	3.5	143	LD50 (in vivo): 209 µmol/kg
O=C1CCN([C@@H]2CCCC[C@H]2OCCc2cccc3ccccc23)C1 (stereo in doubt; 26)	–	–	Activity (Canis familiaris [5]): inactive; Activity (Canis familiaris [6]): inactive
COc1ccc(CCO[C@@H]2CCCC[C@H]2N2CCC(=O)C2)cc1OC	4.5	235	–
c1ccc2c(CCO[C@@H]3CCCC[C@H]3N3CCC4(C3)OCCO4)cccc2c1	–	41	–
Brc1cccc(CCO[C@@H]2CCCC[C@H]2N2CCOCC2)c1	1.9	131	–
O=C1CCN([C@@H]2CCCC[C@H]2OCCc2ccccc2Br)C1	–	155	–
COCCN(CCOC)[C@@H]1CCCC[C@H]1OCCc1ccc2ccccc2c1	3	83	–
Clc1ccc(CCO[C@@H]2CCCC[C@H]2N2CCOCC2)c(Cl)c1	2.1	94	–
O=C1CCN([C@@H]2CCCC[C@H]2OCCc2ccc(Br)c3ccccc23)C1	2.8	246	–
